According to patent US9556183B2, “Substituted pyrazolylpyrazole derivative and use of same as herbicide” (KYOYU AGRI CO., LTD., priority 2013, dated 2017):

Legend:
Rice plants = assay: Paddy herbicidal activity test, phytotoxicity to transplanted rice; type: in vivo; conditions: rice transplanted at 2.0 leaf stage, 30 days
Outline: (§1)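 Flooded paddy-soil pots (3 cm water) sown with weeds; rice at 2.0 leaf stage transplanted when Echinochloa reached 3.5 leaf stage, then diluted wettable powder dropped into water at prescribed rate per are. After 30 days in greenhouse (mean 30° C), growth inhibition vs untreated (efficacy) or vs complete kill (phytotoxicity) scored on 11 levels.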

Echinochloa crus-galli = assay: Paddy herbicidal activity test; type: in vivo; conditions: irrigated paddy pot, treated at 3.5 leaf stage of Echinochloa crus-galli, 30 days
Outline: as §1

Scirpus juncoides = assay: Paddy herbicidal activity test; type: in vivo; conditions: irrigated paddy pot, 30 days
Outline: as §1

Monochoria vaginalis = assay: Paddy herbicidal activity test; type: in vivo; conditions: irrigated paddy pot, 30 days
Outline: as §1

Digitaria ciliaris [1] = assay: Weed foliar treatment test; type: in vivo; conditions: foliar spray at 1.0 to 2.0 leaf stage of Digitaria ciliaris, 3 weeks
Description: (§2) Evaluation of herbicidal efficacy was carried out by comparing growth inhibition rate (%) with an untreated group, while evaluation of phytotoxicity was carried out by comparing growth inhibition rate (%) with the state of a complete eradication group, and were evaluated at 11 levels indicated below. [table] Soil was filled into a 1/6000 are pot followed by seeding with Digitaria ciliaris, Chenopodium album and Amaranthus retroflexus, covering with soil, and cultivating in a glass greenhouse at an average atmospheric temperature of 25° C. Wettable powder of Target Compound (I) shown in Table 1 prepared in compliance with the preparation examples were diluted with water to the prescribed amount of chemical and uniformly sprayed onto the weeds using 15 liters of sprayed water per are when Digitaria ciliaris had grown to the 1.0 to 2.0 leaf stage. After treating for 3 weeks in a glass greenhouse at an average atmospheric temperature of 25° C., the herbicidal efficacy thereof was investigated, Evaluation of herbicidal efficacy was carried out in the same manner as the above-mentioned Test Example 1.

Amaranthus retroflexus [2] = assay: Weed foliar treatment test; type: in vivo; conditions: foliar spray, 3 weeks
Description: as §2

Chenopodium album [3] = assay: Weed foliar treatment test; type: in vivo; conditions: foliar spray, 3 weeks
Description: as §2

Digitaria ciliaris [4] = assay: Farming soil treatment test; type: in vivo; conditions: soil surface spray prior to weed growth, 30 days
Description: (§3) Evaluation of herbicidal efficacy was carried out by comparing growth inhibition rate (%) with an untreated group, while evaluation of phytotoxicity was carried out by comparing growth inhibition rate (%) with the state of a complete eradication group, and were evaluated at 11 levels indicated below. [table] Field soil was filled into a 1/6000 are pot followed by seeding with Digitaria ciliaris, Chenopodium album and Amaranthus retroflexus and covering with soil. Wettable powder of compounds of formula (I) shown in Table 1 prepared in compliance with the preparation examples were diluted with water to the prescribed amount of chemical and uniformly sprayed onto each soil surface layer using 10 liters of sprayed water per are prior to weed growth following seeding. After treating for 30 days in a glass greenhouse at an average atmospheric temperature of 30° C., the herbicidal efficacy thereof was investigated. Evaluation of herbicidal efficacy was carried out in the same manner as the above-mentioned Test Example 1.

Amaranthus retroflexus [5] = assay: Farming soil treatment test; type: in vivo; conditions: soil surface spray prior to weed growth, 30 days
Description: as §3

Chenopodium album [6] = assay: Farming soil treatment test; type: in vivo; conditions: soil surface spray prior to weed growth, 30 days
Description: as §3

melting point [°C]	SMILES	phytotoxicity (growth inhibition rate level) Rice plants (Rice plants; 1g a.i./10a)	phytotoxicity (growth inhibition rate level) Rice plants (Rice plants; 5g a.i./10a)	herbicidal efficacy (growth inhibition rate level) Echinochloa crus-galli (Echinochloa crus-galli; 1g a.i./10a)	herbicidal efficacy (growth inhibition rate level) Echinochloa crus-galli (Echinochloa crus-galli; 5g a.i./10a)	herbicidal efficacy (growth inhibition rate level) Scirpus juncoides (Scirpus juncoides; 1g a.i./10a)	herbicidal efficacy (growth inhibition rate level) Scirpus juncoides (Scirpus juncoides; 5g a.i./10a)	herbicidal efficacy (growth inhibition rate level) Monochoria vaginalis (Monochoria vaginalis; 1g a.i./10a)	herbicidal efficacy (growth inhibition rate level) Monochoria vaginalis (Monochoria vaginalis; 5g a.i./10a)	herbicidal efficacy (growth inhibition rate level) Digitaria ciliaris (Digitaria ciliaris [1]; 5g a.i./10a)	herbicidal efficacy (growth inhibition rate level) Digitaria ciliaris (Digitaria ciliaris [1]; 10g a.i./10a)	herbicidal efficacy (growth inhibition rate level) Amaranthus retroflexus (Amaranthus retroflexus [2]; 5g a.i./10a)	herbicidal efficacy (growth inhibition rate level) Amaranthus retroflexus (Amaranthus retroflexus [2]; 10g a.i./10a)	herbicidal efficacy (growth inhibition rate level) Chenopodium album (Chenopodium album [3]; 5g a.i./10a)	herbicidal efficacy (growth inhibition rate level) Chenopodium album (Chenopodium album [3]; 10g a.i./10a)	herbicidal efficacy (growth inhibition rate level) Digitaria ciliaris (Digitaria ciliaris [4]; 5g a.i./10a)	herbicidal efficacy (growth inhibition rate level) Digitaria ciliaris (Digitaria ciliaris [4]; 10g a.i./10a)	herbicidal efficacy (growth inhibition rate level) Amaranthus retroflexus (Amaranthus retroflexus [5]; 5g a.i./10a)	herbicidal efficacy (growth inhibition rate level) Amaranthus retroflexus (Amaranthus retroflexus [5]; 10g a.i./10a)	herbicidal efficacy (growth inhibition rate level) Chenopodium album (Chenopodium album [6]; 5g a.i./10a)	also measured
104 to 108	CC(Nc1c(C#N)cnn1-c1nn2c(c1Cl)CCCC2)C1CC1 (stereo not drawn) [Compound 9, 1-(3-chloro-4,5,6,7-tetrahydropyrazolo[1,5-a]pyridin-2-yl)-5-(1-cyclopropylethylamino)pyrazole-4-carbonitrile]	0 (0 (exponent): 0% to less than 10% (growth inhibition rate))	1 (1: 10% to less than 20%)	9 (9: 90% to less than 100%)	9 (9: 90% to less than 100%)	8 (8: 80% to less than 90%)	8 (8: 80% to less than 90%)	8 (8: 80% to less than 90%)	9 (9: 90% to less than 100%)	10 (10: 100%)	10 (10: 100%)	10 (10: 100%)	10 (10: 100%)	10 (10: 100%)	10 (10: 100%)	10 (10: 100%)	10 (10: 100%)	10 (10: 100%)	10 (10: 100%)	10 (10: 100%)	herbicidal efficacy (growth inhibition rate level) Chenopodium album (Chenopodium album [6]; 10g a.i./10a): 10 (10: 100%)
132 to 133	N#Cc1cnn(-c2nn3c(c2Cl)CCCC3)c1NC(C1CC1)C1CC1 [Compound 10, 1-(3-chloro-4,5,6,7-tetrahydropyrazolo[1,5-a]pyridin-2-yl)-5-(dicyclopropylmethylamino)pyrazole-4-carbonitrile]	0 (0 (exponent): 0% to less than 10% (growth inhibition rate))	1 (1: 10% to less than 20%)	9 (9: 90% to less than 100%)	9 (9: 90% to less than 100%)	8 (8: 80% to less than 90%)	9 (9: 90% to less than 100%)	8 (8: 80% to less than 90%)	9 (9: 90% to less than 100%)	10 (10: 100%)	10 (10: 100%)	10 (10: 100%)	10 (10: 100%)	10 (10: 100%)	10 (10: 100%)	10 (10: 100%)	10 (10: 100%)	10 (10: 100%)	10 (10: 100%)	10 (10: 100%)	herbicidal efficacy (growth inhibition rate level) Chenopodium album (Chenopodium album [6]; 10g a.i./10a): 10 (10: 100%)
